Results published in US20120115944A1, “USE OF CARNITINE AND DIHYDROQUERCITIN TO POSITIVELY INFLUENCE THE NATURAL PIGMENTATION PROCESS” (Henkel AG & Co., KGaA, priority 2009, published 2012).

Assays:
Format in all cases: cell-based
gp100 = test: Differential gene expression by quantitative RT-PCR in organotypic hair follicle cell cultures: gp100; settings: 48 h incubation, untreated control = 1
Description: Gp100 is a protein that occurs in the membrane of melanosomes and stabilizes it. Because more melanin is produced in the cells after the application of substances that positively influence melanogenesis, an increase also occurs in the number of melanosomes required for transport. A substance that induces the gene expression of gp100 is therefore a pigmentation-stimulating active substance. A determination of the extent of the change in gene expression after an application of such substances onto suitable cells/cell systems/tissue cultures can provide information regarding the efficacy of the active substance. Differential gene expression was determined by means of quantitative RT-PCR. After three-dimensional organotypic hair follicle cell cultures from dermal papilla cells had been produced on microcarriers, the latter were incubated for 48 h with dihydroquercetin in two different concentrations. In order to carry out the PCR, firstly the RNA was isolated from the organotypic cell cultures using the RNeasy Mini Kit of the Qiagen company, and it was transcribed into cDNA by reverse transcription. In the context of the subsequent PCR reaction, which was carried out using gene-specific primers for the respective genes and which serves to amplify the desired gene segments, formation of the PCR products was detected online by way of a fluorescence signal, which is proportional to the quantity of PCR product formed. The stronger the expression of a specific gene, the greater the quantity of PCR product formed, and the higher the fluorescence signal. The quantify the gene expression, the untreated control was set to equal 1, and expression of the genes to be determined was referred to it (X-times expression). […] Values that are greater than or equal to 1.5 times the expression, or less than or equal to 0.7 times the expression, of the untreated control are classified as tending toward differential expression.

[1] = system: three-dimensional organotypic hair follicle cell cultures made up of dermal papilla cells, hair follicle melanocytes, and outer root sheath keratinocytes; test: Melanin content in hair follicle equivalents
Description: Melanin is a dye that is produced and stored in the melanosomes of melanocytes. Melanin gives hair its actual color, the color being produced by a mixture of two types of melanin, eumelanin and pheomelanin. Melanogenesis is a complicated synthesis process regulated in many ways. Firstly, tyrosine is converted by the enzyme tyrosinase into L-dihydroxyphenylalanine (L-DOPA), and then via multiple intermediate steps into the various melanin pigments. An active substance that positively influences melanogenesis and results in an elevated melanin content in the hair follicle melanocytes is particularly suitable for influencing the natural pigmentation process of skin and/or skin appendages, preventing hair graying, and/or stimulating pigmentation.
To investigate the melanin content, three-dimensional organotypic hair follicle cell cultures made up of dermal papilla cells, hair follicle melanocytes, and outer root sheath keratinocytes were treated for 7 days with dihydroquercetin (10 μM and 100 μM). Untreated cell cultures served as controls. After 4 and 7 days the hair follicle equivalents were homogenized and the melanin was extracted for 45 minutes using NaOH (1M)+10% DMSO at 100° C. Aliquots of the samples were then transferred into a 96-well plate, and extinction at 492 nm was measured. The increase in melanin content from day 0 to day 7 was evaluated by referring all the values to the untreated control at day 7 (=100%).

[2] = system: MCR1 (melanocortin receptor 1); test: Differential gene expression by quantitative RT-PCR in organotypic hair follicle cell cultures: MCR1; settings: 48 h incubation, untreated control = 1
Description: Ligands participating in melanogenesis, such as SCF or alpha-MSH (melanocyte stimulating hormone alpha), bind to a variety of receptors by means of which the corresponding signal is delivered into the interior of the cell. The receptor for SCF is ckit, the receptor for alpha-MSH is MCR-1 (melanocortin receptor 1). Those substances that bring about a change in the expression of MCR-1 and/or ckit can influence melanogenesis. In the case of an induction (upregulation or stimulation) of the gene expression of the corresponding receptors, a stimulation of melanogenesis is to be assumed. A determination of the extent of the change in gene expression after an application of such substances onto suitable cells/cell systems/tissue cultures can provide information regarding the efficacy of the active substance. Differential gene expression was determined by means of quantitative RT-PCR. After three-dimensional organotypic hair follicle cell cultures from dermal papilla cells had been produced on microcarriers, the latter were incubated for 48 h with dihydroquercetin in two different concentrations. In order to carry out the PCR, firstly the RNA was isolated from the organotypic cell cultures using the RNeasy Mini Kit of the Qiagen company, and it was transcribed into cDNA by reverse transcription. In the context of the subsequent PCR reaction, which was carried out using gene-specific primers for the respective genes and which serves to amplify the desired gene segments, formation of the PCR products was detected online by way of a fluorescence signal, which is proportional to the quantity of PCR product formed. The stronger the expression of a specific gene, the greater the quantity of PCR product formed, and the higher the fluorescence signal. The quantify the gene expression, the untreated control was set to equal 1, and expression of the genes to be determined was referred to it (X-times expression). […] Values that are greater than or equal to 1.5 times the expression, or less than or equal to 0.7 times the expression, of the untreated control are classified as tending toward differential expression.

ckit = test: Differential gene expression by quantitative RT-PCR in organotypic hair follicle cell cultures: ckit; settings: 48 h incubation, untreated control = 1
Description: Ligands participating in melanogenesis, such as SCF or alpha-MSH (melanocyte stimulating hormone alpha), bind to a variety of receptors by means of which the corresponding signal is delivered into the interior of the cell. The receptor for SCF is ckit, the receptor for alpha-MSH is MCR-1 (melanocortin receptor 1). Those substances that bring about a change in the expression of MCR-1 and/or ckit can influence melanogenesis. In the case of an induction (upregulation or stimulation) of the gene expression of the corresponding receptors, a stimulation of melanogenesis is to be assumed. A determination of the extent of the change in gene expression after an application of such substances onto suitable cells/cell systems/tissue cultures can provide information regarding the efficacy of the active substance. Differential gene expression was determined by means of quantitative RT-PCR. After three-dimensional organotypic hair follicle cell cultures from dermal papilla cells had been produced on microcarriers, the latter were incubated for 48 h with dihydroquercetin in two different concentrations. In order to carry out the PCR, firstly the RNA was isolated from the organotypic cell cultures using the RNeasy Mini Kit of the Qiagen company, and it was transcribed into cDNA by reverse transcription. In the context of the subsequent PCR reaction, which was carried out using gene-specific primers for the respective genes and which serves to amplify the desired gene segments, formation of the PCR products was detected online by way of a fluorescence signal, which is proportional to the quantity of PCR product formed. The stronger the expression of a specific gene, the greater the quantity of PCR product formed, and the higher the fluorescence signal. The quantify the gene expression, the untreated control was set to equal 1, and expression of the genes to be determined was referred to it (X-times expression). […]

KGF = test: Relative excretion of KGF (ELISA) in organotypic hair follicle cell cultures; settings: 72 hours, untreated = 100
Description: (§1) L-Carnitine and L-carnitine tartrate were investigated with regard to their effects on ATP synthesis the excretion of the growth factors HGF (hepatocyte growth factors) and KGF (keratinocyte growth factor). ATP (adenosine triphosphate) is the universal storage form for chemical energy in cells. Release of the phosphate groups yields ADP and Pi (inorganic phosphate). This reaction is highly exergonic, i.e. energy is released. ATP is produced in the cellular oxidative breakdown of fats, carbohydrates, and proteins. It serves as an energy supply for biochemical syntheses (including melanin synthesis), for transport operations (active transport), and for mechanical work. These processes are endergonic, i.e. they proceed only when energy is delivered. HGF and KGF are important growth factors with which the dermal papilla controls hair growth and the hair cycle, to which pigment production in the hair follicle is linked in particular fashion. Melanin formation takes place exclusively in the anagen phase of the hair cycle. […]
(§2) The excretion of HGF and KGF can be quantified with the aid of a commercially obtainable ELISA kit. For this, organotypic hair follicle cell cultures made up of dermal papilla cells, hair follicle melanocytes, and outer root sheath keratinocytes are incubated for 72 hours with carnitine tartrate, and the concentration of HGF and KGF in the medium is determined.

HGF = test: Relative excretion of HGF (ELISA) in organotypic hair follicle cell cultures; settings: 72 hours, untreated = 100
Description: as §1, §2

[3] = system: organotypic cell cultures made up of three-dimensionally cultivated dermal papilla cells; test: ATP content in hair follicle cell cultures (ATPlite-M assay); settings: 24 hours, untreated = 100
Description: L-Carnitine and L-carnitine tartrate were investigated with regard to their effects on ATP synthesis the excretion of the growth factors HGF (hepatocyte growth factors) and KGF (keratinocyte growth factor). ATP (adenosine triphosphate) is the universal storage form for chemical energy in cells. Release of the phosphate groups yields ADP and Pi (inorganic phosphate). This reaction is highly exergonic, i.e. energy is released. ATP is produced in the cellular oxidative breakdown of fats, carbohydrates, and proteins. It serves as an energy supply for biochemical syntheses (including melanin synthesis), for transport operations (active transport), and for mechanical work. These processes are endergonic, i.e. they proceed only when energy is delivered. HGF and KGF are important growth factors with which the dermal papilla controls hair growth and the hair cycle, to which pigment production in the hair follicle is linked in particular fashion. Melanin formation takes place exclusively in the anagen phase of the hair cycle. In addition, a variety of publications have discussed the effect of HGF on DNA synthesis, on growth, and on the differentiation of melanocytes.
The ATP determination was performed using the ATPlite™-M assay (Packard). The test principle of this assay is based on the fact that the luciferase of Photinus pyralis catalyzes a reaction in which D-luciferin is converted into oxyluciferin in the presence of ATP. This reaction causes the emission of green light, which can be measured with a luminometer. The emitted bioluminescent light is proportional to the quantity of ATP present.
The ATP activity determination was performed in organotypic cell cultures made up of three-dimensionally cultivated dermal papilla cells. The treatment with carnitine and carnitine tartrate occurred over 24 hours, against an untreated control.

[4] = 100 μM, listed as dihydroquercetin

SMILES: O=C1c2c(O)cc(O)cc2OC(c2ccc(O)c(O)c2)C1O (stereo not shown) [Dihydroquercetin, 3,3′,4′,5,7-pentahydroxyflavanone]
- gp100 expression M (X-times expression) (gp100; 10 μM): 0.89
- gp100 expression M (X-times expression) (gp100; 100 μM): 3.48
- gp100 expression M (X-times expression) (gp100; [4]): induced
- Melanin content (%) M ([1]; 10 μM, d 4): 100%
- Melanin content (%) M ([1]; 10 μM, d 7, untreated d 7 = 181): 254%
- Melanin content (%) M ([1]; 100 μM, d 4): 100%
- Melanin content (%) M ([1]; 100 μM, d 7, untreated d 7 = 181): 161%
- MCR1 expression M (X-times expression) ([2]; 10 μM): 2.56
- MCR1 expression M (X-times expression) ([2]; 10 μM, listed as dihydroquercetin): significantly differentially expressed
- MCR1 expression M (X-times expression) ([2]; 100 μM): 5.17
- MCR1 expression M (X-times expression) [2, 4]: induced
- ckit expression M (X-times expression) (ckit; 10 μM): 1.32
- ckit expression M (X-times expression) (ckit; 100 μM): 3.55
- ckit expression M (X-times expression) (ckit; [4]): induced

SMILES: C[N+](C)(C)C[C@H](O)CC(=O)[O-].O=C(O)C(O)C(O)C(=O)O [Carnitine tartrate, L-carnitine tartrate]
- KGF (%) M, relative excretion (KGF; 0.005%): 123%
- HGF (%) M, relative excretion (HGF; 0.005%): 141%
- ATP (%) M ([3]; 0.01%, listed as carnitine tartrate, tartrate): increase the ATP content in the treated cultures significantly
- ATP (%) M ([3]; 0.01%, tartrate): 195%
- ATP (%) M ([3]; 0.05%): 102%

SMILES: C[N+](C)(C)CC(O)CC(=O)[O-] (stereo not shown) [Carnitine, 3-hydroxy-4-(trimethylammonium)butyric acid betaine]
- KGF (%) M, relative excretion (KGF; 0.01%): 120%
- HGF (%) M, relative excretion (HGF; 0.01%): 105%
- ATP (%) M ([3]; 0.05%): 212%
- ATP (%) M ([3]; 0.05%, listed as carnitine): increase the ATP content in the treated cultures significantly
- ATP (%) M ([3]; 0.1%): 160%
- ATP (%) M ([3]; 0.1%, listed as carnitine): increase the ATP content in the treated cultures significantly
